Experiments:
[1] = tested on: BG-1 human ovarian cancer cells; experiment: Inhibition of growth of BG-1 ovarian cancer cells (MTT), with MacSynergy II synergy analysis; type: cell-based; details: for Antagonsim / Synergy: BG-1, antiestrogen in combination with CCI-779, MacSynergy II, Bliss independence model; for Percent Inhibition: CCI-779 0 nM
Experimental: In these test procedures, rapamycin 42-ester with 3-hydroxy-2-(hydroxymethyl)-2-methylpropionic acid was used as a representative rapamycin, and 2-(4-hydroxy-phenyl)-3-methyl-1-[4-(2-piperdin-1-yl-ethoxy)-benzyl-1 H-indol-5-ol, raloxifene, and 4-hydroxytamoxifen were used as representative antiestrogens.
One day before the experiment, cells were plated in 96-well plates at a cell density of 2,500 cells/well in IMEM medium supplemented with 10% fetal bovine serum. The next day, cells were treated with various concentrations of antiestrogen and rapamycin 42-ester with 3-hydroxy-2-(hydroxymethyl)-2-methylpropionic acid (referred to as CCI-779 in the tables below). Five or six-days later, cell growth was monitored.

[2] = tested on: MCF-7 human breast cancer cells; experiment: Inhibition of growth of MCF-7 breast cancer cells (MTT), with MacSynergy II synergy analysis; details: for Antagonsim / Synergy: MCF-7, antiestrogen in combination with CCI-779, MacSynergy II, Bliss independence model; for synergy of growth inhibition (in words): MCF-7 cells, in combination with CCI-779;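 on all read-outs here: cells treated five or six days with single agents or combinations, growth read by MTT, synergy surface equals observed % inhibition minus Bliss additive prediction, values under 0% signal antagonism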
Experimental: MCF-7 human breast cancer cells were maintained at 37° C. in a humidified atmosphere of 5% CO2 and 95% air in IMEM medium supplemented with 10% fetal bovine serum. […] One day before the experiment, cells were plated in 96-well plates at a cell density of 2,500 cells/well in IMEM medium supplemented with 10% fetal bovine serum. The next day, cells were treated with various concentrations of antiestrogen and rapamycin 42-ester with 3-hydroxy-2-(hydroxymethyl)-2-methylpropionic acid (referred to as CCI-779 in the tables below). Five or six-days later, cell growth was monitored. MTT solution (20 ul) (0.5 mg/ml) was added to each well and cells were incubated for an additional 4 h. The solution was then removed and 150 ul of DMSO added. The intensity of dark blue color corresponding to number of cells was read at 540 nm with an automated plate reader.
Briefly, theoretical additive interactions were calculated from the dose-response curves of each individual drug based on Bliss independence model. The calculated additive surface was then subtracted from the experimental surface to obtain a synergy surface representing % inhibition above the calculated additive value-synergy index. […] Likewise, any peak below the 0% plane is indicative of antagonism.

O=C(c1ccc(OCCN2CCCCC2)cc1)c1c(-c2ccc(O)cc2)sc2cc(O)ccc12 [RAL, raloxifene, reference compound]
Antagonsim [1]: −1.8 μM^2%
Synergy [1]: 40.3 μM^2%
Percent Inhibition ([1]; Table I, Raloxifene 0.25 nM): 0.74%
Percent Inhibition ([1]; Table I, Raloxifene 0.5 nM): −3.32%
Percent Inhibition ([1]; Table I, Raloxifene 1 nM): 7.79%
Percent Inhibition ([1]; Table I, Raloxifene 2 nM): 9.85%
Percent Inhibition ([1]; Table I, Raloxifene 3 nM): 11.5%
Percent Inhibition ([1]; Table I, Raloxifene 4 nM): 14.49%
Percent Inhibition ([1]; Table I, Raloxifene 5 nM): 14.04%
Antagonsim [2]: 0.0 μM^2%
Synergy [2]: 113.0 μM^2%
synergy of growth inhibition (in words) [2]: synergistic inhibition
Percent Inhibition ([2]; Table C, CCI-779 0 nM, Raloxifene 0.25 nM): −1.4%
Percent Inhibition ([2]; Table C, CCI-779 0 nM, Raloxifene 0.5 nM): −5.17%
Percent Inhibition ([2]; Table C, CCI-779 0 nM, Raloxifene 1 nM): 17.3%
Percent Inhibition ([2]; Table C, CCI-779 0 nM, Raloxifene 2 nM): 36.78%
Percent Inhibition ([2]; Table C, CCI-779 0 nM, Raloxifene 3 nM): 42.4%
Percent Inhibition ([2]; Table C, CCI-779 0 nM, Raloxifene 4 nM): 50.49%
Percent Inhibition ([2]; Table C, CCI-779 0 nM, Raloxifene 5 nM): 50.5%

CCC(=C(c1ccc(O)cc1)c1ccc(OCCN(C)C)cc1)c1ccccc1 [TAM, 4-hydroxytamoxifen, reference compound]
Antagonsim [1]: 0.0 μM^2%
Synergy [1]: 0.3 μM^2%
Percent Inhibition ([1]; Table H, 4-Hydroxytamoxifen 5 nM): 23.99%
Percent Inhibition ([1]; Table H, 4-Hydroxytamoxifen 10 nM): 21.39%
Percent Inhibition ([1]; Table H, 4-Hydroxytamoxifen 20 nM): 35.05%
Percent Inhibition ([1]; Table H, 4-Hydroxytamoxifen 30 nM): 36.43%
Percent Inhibition ([1]; Table H, 4-Hydroxytamoxifen 40 nM): 39.51%
Percent Inhibition ([1]; Table H, 4-Hydroxytamoxifen 50 nM): 47.73%
Percent Inhibition ([1]; Table H, 4-Hydroxytamoxifen 100 nM): 50%
Antagonsim [2]: 0.0 μM^2%
Synergy [2]: 77.00 μM^2%
synergy of growth inhibition (in words) [2]: synergistic inhibition
Percent Inhibition ([2]; Table B, CCI-779 0 nM, 4-Hydroxytamoxifen 5 nM): 20.44%
Percent Inhibition ([2]; Table B, CCI-779 0 nM, 4-Hydroxytamoxifen 10 nM): 22.75%
Percent Inhibition ([2]; Table B, CCI-779 0 nM, 4-Hydroxytamoxifen 20 nM): 39.85%
Percent Inhibition ([2]; Table B, CCI-779 0 nM, 4-Hydroxytamoxifen 30 nM): 41.46%
Percent Inhibition ([2]; Table B, CCI-779 0 nM, 4-Hydroxytamoxifen 40 nM): 39.09%
Percent Inhibition ([2]; Table B, CCI-779 0 nM, 4-Hydroxytamoxifen 50 nM): 47.19%
Percent Inhibition ([2]; Table B, CCI-779 0 nM, 4-Hydroxytamoxifen 100 nM): 36.99%
Percent Inhibition ([2]; Table F, 4-Hydroxytamoxifen 0 nM + 4-Hydroxytamoxifen 5 nM): 25.02%
Percent Inhibition ([2]; Table F, 4-Hydroxytamoxifen 0 nM + 4-Hydroxytamoxifen 10 nM): 37.37%
Percent Inhibition ([2]; Table F, 4-Hydroxytamoxifen 0 nM + 4-Hydroxytamoxifen 20 nM): 44.9%
Percent Inhibition ([2]; Table F, 4-Hydroxytamoxifen 0 nM + 4-Hydroxytamoxifen 30 nM): 42.42%
Percent Inhibition ([2]; Table F, 4-Hydroxytamoxifen 0 nM + 4-Hydroxytamoxifen 40 nM): 46.46%
Percent Inhibition ([2]; Table F, 4-Hydroxytamoxifen 0 nM + 4-Hydroxytamoxifen 50 nM): 45.78%
Percent Inhibition ([2]; Table F, 4-Hydroxytamoxifen 0 nM + 4-Hydroxytamoxifen 100 nM): 49.99%
Percent Inhibition ([2]; Table F, 4-Hydroxytamoxifen 5 nM + 4-Hydroxytamoxifen 0 nM): 12.73%
Percent Inhibition ([2]; Table F, 4-Hydroxytamoxifen 5 nM + 4-Hydroxytamoxifen 5 nM): 37.12%
Percent Inhibition ([2]; Table F, 4-Hydroxytamoxifen 5 nM + 4-Hydroxytamoxifen 10 nM): 49.04%
Percent Inhibition ([2]; Table F, 4-Hydroxytamoxifen 5 nM + 4-Hydroxytamoxifen 20 nM): 50.12%
Percent Inhibition ([2]; Table F, 4-Hydroxytamoxifen 5 nM + 4-Hydroxytamoxifen 30 nM): 50.39%
Percent Inhibition ([2]; Table F, 4-Hydroxytamoxifen 5 nM + 4-Hydroxytamoxifen 40 nM): 54.19%
Percent Inhibition ([2]; Table F, 4-Hydroxytamoxifen 5 nM + 4-Hydroxytamoxifen 50 nM): 53.75%
Percent Inhibition ([2]; Table F, 4-Hydroxytamoxifen 5 nM + 4-Hydroxytamoxifen 100 nM): 59.23%
Percent Inhibition ([2]; Table F, 4-Hydroxytamoxifen 10 nM + 4-Hydroxytamoxifen 0 nM): 27.87%
Percent Inhibition ([2]; Table F, 4-Hydroxytamoxifen 10 nM + 4-Hydroxytamoxifen 5 nM): 47.71%
Percent Inhibition ([2]; Table F, 4-Hydroxytamoxifen 10 nM + 4-Hydroxytamoxifen 10 nM): 47.11%
Percent Inhibition ([2]; Table F, 4-Hydroxytamoxifen 10 nM + 4-Hydroxytamoxifen 20 nM): 45.86%
Percent Inhibition ([2]; Table F, 4-Hydroxytamoxifen 10 nM + 4-Hydroxytamoxifen 30 nM): 47.6%
Percent Inhibition ([2]; Table F, 4-Hydroxytamoxifen 10 nM + 4-Hydroxytamoxifen 40 nM): 53.22%
Percent Inhibition ([2]; Table F, 4-Hydroxytamoxifen 10 nM + 4-Hydroxytamoxifen 50 nM): 56.54%
Percent Inhibition ([2]; Table F, 4-Hydroxytamoxifen 10 nM + 4-Hydroxytamoxifen 100 nM): 58.11%
Percent Inhibition ([2]; Table F, 4-Hydroxytamoxifen 50 nM + 4-Hydroxytamoxifen 0 nM): 39.46%
Percent Inhibition ([2]; Table F, 4-Hydroxytamoxifen 50 nM + 4-Hydroxytamoxifen 5 nM): 48.51%
Percent Inhibition ([2]; Table F, 4-Hydroxytamoxifen 50 nM + 4-Hydroxytamoxifen 10 nM): 51.71%
Percent Inhibition ([2]; Table F, 4-Hydroxytamoxifen 50 nM + 4-Hydroxytamoxifen 20 nM): 46.36%
Percent Inhibition ([2]; Table F, 4-Hydroxytamoxifen 50 nM + 4-Hydroxytamoxifen 30 nM): 42.54%
Percent Inhibition ([2]; Table F, 4-Hydroxytamoxifen 50 nM + 4-Hydroxytamoxifen 40 nM): 48.3%
Percent Inhibition ([2]; Table F, 4-Hydroxytamoxifen 50 nM + 4-Hydroxytamoxifen 50 nM): 50.98%
Percent Inhibition ([2]; Table F, 4-Hydroxytamoxifen 50 nM + 4-Hydroxytamoxifen 100 nM): 58.57%
Percent Inhibition ([2]; Table F, 4-Hydroxytamoxifen 100 nM + 4-Hydroxytamoxifen 0 nM): 46.41%
Percent Inhibition ([2]; Table F, 4-Hydroxytamoxifen 100 nM + 4-Hydroxytamoxifen 5 nM): 52.37%
Percent Inhibition ([2]; Table F, 4-Hydroxytamoxifen 100 nM + 4-Hydroxytamoxifen 10 nM): 50.34%
Percent Inhibition ([2]; Table F, 4-Hydroxytamoxifen 100 nM + 4-Hydroxytamoxifen 20 nM): 47.64%
Percent Inhibition ([2]; Table F, 4-Hydroxytamoxifen 100 nM + 4-Hydroxytamoxifen 30 nM): 48.22%
Percent Inhibition ([2]; Table F, 4-Hydroxytamoxifen 100 nM + 4-Hydroxytamoxifen 40 nM): 51.79%
Percent Inhibition ([2]; Table F, 4-Hydroxytamoxifen 100 nM + 4-Hydroxytamoxifen 50 nM): 55.29%
Percent Inhibition ([2]; Table F, 4-Hydroxytamoxifen 100 nM + 4-Hydroxytamoxifen 100 nM): 61.34%
Percent Inhibition ([2]; Table F, 4-Hydroxytamoxifen 200 nM + 4-Hydroxytamoxifen 0 nM): 45.75%
Percent Inhibition ([2]; Table F, 4-Hydroxytamoxifen 200 nM + 4-Hydroxytamoxifen 5 nM): 54.54%
Percent Inhibition ([2]; Table F, 4-Hydroxytamoxifen 200 nM + 4-Hydroxytamoxifen 10 nM): 51.06%
Percent Inhibition ([2]; Table F, 4-Hydroxytamoxifen 200 nM + 4-Hydroxytamoxifen 20 nM): 52%
Percent Inhibition ([2]; Table F, 4-Hydroxytamoxifen 200 nM + 4-Hydroxytamoxifen 30 nM): 49.75%
Percent Inhibition ([2]; Table F, 4-Hydroxytamoxifen 200 nM + 4-Hydroxytamoxifen 40 nM): 59.13%
Percent Inhibition ([2]; Table F, 4-Hydroxytamoxifen 200 nM + 4-Hydroxytamoxifen 50 nM): 59.05%
Percent Inhibition ([2]; Table F, 4-Hydroxytamoxifen 200 nM + 4-Hydroxytamoxifen 100 nM): 61.13%
Percent Inhibition ([2]; Table F, 4-Hydroxytamoxifen 400 nM + 4-Hydroxytamoxifen 0 nM): 48.85%
Percent Inhibition ([2]; Table F, 4-Hydroxytamoxifen 400 nM + 4-Hydroxytamoxifen 5 nM): 52.28%
Percent Inhibition ([2]; Table F, 4-Hydroxytamoxifen 400 nM + 4-Hydroxytamoxifen 10 nM): 58.29%
Percent Inhibition ([2]; Table F, 4-Hydroxytamoxifen 400 nM + 4-Hydroxytamoxifen 20 nM): 56.61%
Percent Inhibition ([2]; Table F, 4-Hydroxytamoxifen 400 nM + 4-Hydroxytamoxifen 30 nM): 57.28%
Percent Inhibition ([2]; Table F, 4-Hydroxytamoxifen 400 nM + 4-Hydroxytamoxifen 40 nM): 59.68%
Percent Inhibition ([2]; Table F, 4-Hydroxytamoxifen 400 nM + 4-Hydroxytamoxifen 50 nM): 67.28%
Percent Inhibition ([2]; Table F, 4-Hydroxytamoxifen 400 nM + 4-Hydroxytamoxifen 100 nM): 64.92%
